Measured values published in patent publication US12285407B2, “Bis-indolylmethane derivatives and uses thereof” (The University of The West Indies, priority 2018, dated 2025).
Where two headings read alike, the source gives them in different places.

Legend:
Bacillus cereus [1] = assay: Checkerboard synergy (FICI) of antibiotics with SP-BIM; assay type: cell-based; conditions: for MIC: 24 h, antibiotic alone, read-out: MIC antibiotic only
Bacillus cereus [2] = assay: Adjuvant broth microdilution (antibiotic MIC with SP-BIM at 50 μg/mL); assay type: cell-based; conditions: antibiotic alone, Table 9
Streptococcus pneumoniae [3] = assay: Checkerboard synergy (FICI) of antibiotics with SP-BIM; assay type: cell-based; conditions: for MIC: 24 h, antibiotic alone, read-out: MIC antibiotic only
Escherichia coli [4] = assay: microbe, parasite or virus in culture; assay type: cell-based; conditions: antibiotic alone, Table 6, read-out: MIC of antibiotic, No compound
Escherichia coli O157:H7 = assay type: cell-based; conditions: antibiotic alone, no SP-BIM
[5] = tested on: clinical antibiotic resistant isolates of MRSA; assay: Checkerboard resistance breaking by SP-BIM 13; assay type: cell-based, Staphylococcus aureus; conditions: for FIC compound / Rescue concentration of SP-BIM 13: SP-BIM 13 with the labelled antibiotic; for Interpretation / Σ FIC: antibiotic + SP-BIM 13; for MIC of antibiotic only: antibiotic alone; for FIC antibiotic: combination with SP-BIM 13; for MIC of antibiotic in combination: with SP-BIM 13 at rescue concentration
Candida albicans = assay: Checkerboard synergy (FICI) of antibiotics with SP-BIM; set-up: MIC SP-BIM 13 only / MIC in combination: Antibiotic / MIC antibiotic only: unit not given beside the values
Escherichia coli [6] = assay: as above; set-up: MIC SP-BIM 13 only / MIC in combination: Antibiotic: unit not given beside the values; conditions: for MIC: 24 h
Klebsiella pneumoniae = assay: as above; assay type: cell-based; conditions: for MIC: 24 h, antibiotic alone, read-out: MIC antibiotic only
Enterobacter cloacae = assay: Adjuvant broth microdilution (antibiotic MIC with SP-BIM at 50 μg/mL); assay type: cell-based; conditions: antibiotic alone
Staphylococcus aureus = assay: Checkerboard synergy (FICI) of antibiotics with SP-BIM; assay type: cell-based; conditions: Staphylococcus aureus, Staphylococcus aureus; for MIC: 24 h, antibiotic alone, read-out: MIC antibiotic only
Enterococcus faecalis = assay: Adjuvant broth microdilution (antibiotic MIC with SP-BIM at 50 μg/mL); assay type: cell-based; conditions: antibiotic alone
Streptococcus pneumoniae [7] = assay: as above; assay type: cell-based; conditions: Streptococcus pneumoniae; Streptococcus pneumonia; antibiotic alone; Table 5; read-out: MIC of antibiotic, No compound
[8] = SP-BIM 9 in combination with the labelled antibiotic
[9] = SP-BIM 13 in combination with the labelled antibiotic
[10] = antibiotic in combination with SP-BIM 9
[11] = antibiotic in combination with SP-BIM 13
[12] = Streptococcus pneumonia (title: Streptococcus pyogenes), antibiotic + SP-BIM 9
[13] = Streptococcus pneumoniae, antibiotic + SP-BIM 13
[14] = MIC of the antibiotic in combination with SP-BIM 13

C[C@H]1c2cccc(O)c2C(=O)C2=C(O)[C@]3(O)C(=O)C(C(N)=O)=C(O)[C@@H](N(C)C)[C@@H]3[C@@H](O)[C@@H]21 [Doxycycline, doxycycline]
MIC (Bacillus cereus [1]; SP-BIM 9 checkerboard): 4 µg/mL | MIC (Bacillus cereus [1]; SP-BIM 13 checkerboard): 4 µg/mL | MIC in combination, SP-BIM 9 (Bacillus cereus [1]; SP-BIM 9 concentration in combination with the labelled antibiotic): 125 µg/mL | FIC of SP-BIM 9 (Bacillus cereus [1]; [8]): 0.5 | FIC of SP-BIM 13 (Bacillus cereus [1]; [9]): 0.3 | Interpretation (Bacillus cereus [1]; antibiotic + SP-BIM 9): Synergy (Synergy: FICI≤0.5) | Σ FIC (Bacillus cereus [1]; antibiotic + SP-BIM 9): <0.6 | Interpretation (Bacillus cereus [1]; antibiotic + SP-BIM 13): Synergy (Synergy: FICI≤0.5) | Σ FIC (Bacillus cereus [1]; antibiotic + SP-BIM 13): 0.5 | MIC in combination, Antibiotic (Bacillus cereus [1]; [10]): 0.5 µg/mL | MIC in combination, Antibiotic (Bacillus cereus [1]; [11]): 1 µg/mL | FIC of antibiotic (Bacillus cereus [1]; in combination with SP-BIM 9): 0.125 | FIC of antibiotic (Bacillus cereus [1]; in combination with SP-BIM 13): 0.25 | MIC of antibiotic, No Compound (Bacillus cereus [2]): <0.5 µg/mL | FIC of SP-BIM 9 (Streptococcus pneumoniae [3]; Streptococcus pneumonia (title: Streptococcus pyogenes), SP-BIM 9 in combination with the labelled antibiotic): 0.50 | Interpretation (Streptococcus pneumoniae [3]; [12]): Additive (Additive: FICI>0.5-1.0) | Σ FIC (Streptococcus pneumoniae [3]; [12]): <0.75 | MIC in combination, Antibiotic (Streptococcus pneumoniae [3]; Streptococcus pneumonia (title: Streptococcus pyogenes), antibiotic in combination with SP-BIM 9): 4 µg/mL | FIC of antibiotic (Streptococcus pneumoniae [3]; Streptococcus pneumonia (title: Streptococcus pyogenes), in combination with SP-BIM 9): 0.25 | MIC (Streptococcus pneumoniae [3]; Streptococcus pneumoniae, Streptococcus pneumonia (title: Streptococcus pyogenes), SP-BIM 9 checkerboard): 16 µg/mL | MIC (Streptococcus pneumoniae [3]; Streptococcus pneumoniae, Streptococcus pneumoniae, SP-BIM 13 checkerboard): 16 µg/mL | FIC of SP-BIM 13 (Streptococcus pneumoniae [3]; Streptococcus pneumoniae, SP-BIM 13 in combination with the labelled antibiotic): 0.3 | Interpretation (Streptococcus pneumoniae [3]; [13]): Synergy (Synergy: FICI≤0.5) | Σ FIC (Streptococcus pneumoniae [3]; [13]): <0.3 | MIC in combination, Antibiotic (Streptococcus pneumoniae [3]; Streptococcus pneumoniae, antibiotic in combination with SP-BIM 13): 1 µg/mL | FIC of antibiotic (Streptococcus pneumoniae [3]; Streptococcus pneumoniae, in combination with SP-BIM 13): 0.1 | MIC (Escherichia coli [4]): 63 µg/mL | MIC of antibiotic, No Compound (Escherichia coli O157:H7): 2 µg/mL | FIC compound ([5]; MRSA strain 1594): 0.3 | Rescue concentration of SP-BIM 13 ([5]; MRSA strain 1594): 63 µg/mL | Interpretation ([5]; MRSA strain 1594): Synergy (Synergy: FICI≤0.5) | Σ FIC ([5]; MRSA strain 1594): <0.43 | MIC of antibiotic only ([5]; MRSA strain 1594): 8 µg/mL | FIC antibiotic ([5]; MRSA strain 1594): 0.125 | MIC of antibiotic in combination ([5]; MRSA strain 1594): 1 µg/mL | FIC compound ([5]; MRSA strain 5872): 0.064 | Rescue concentration of SP-BIM 13 ([5]; MRSA strain 5872): 16 µg/mL | Interpretation ([5]; MRSA strain 5872): Synergy (Synergy: FICI≤0.5) | Σ FIC ([5]; MRSA strain 5872): <0.19 | MIC of antibiotic only ([5]; MRSA strain 5872): 32 µg/mL | FIC antibiotic ([5]; MRSA strain 5872): 0.125 | MIC of antibiotic in combination ([5]; MRSA strain 5872): 4 µg/mL | FIC compound ([5]; MRSA strain 7153): 0.128 | Rescue concentration of SP-BIM 13 ([5]; MRSA strain 7153): 32 µg/mL | Interpretation ([5]; MRSA strain 7153): Synergy (Synergy: FICI≤0.5) | Σ FIC ([5]; MRSA strain 7153): <0.25 | MIC of antibiotic only ([5]; MRSA strain 7153): 8 µg/mL | FIC antibiotic ([5]; MRSA strain 7153): 0.125 | MIC of antibiotic in combination ([5]; MRSA strain 7153): 1 µg/mL | FIC compound ([5]; MRSA strain 7172): 0.128 | Rescue concentration of SP-BIM 13 ([5]; MRSA strain 7172): 32 µg/mL | Interpretation ([5]; MRSA strain 7172): Synergy (Synergy: FICI≤0.5) | Σ FIC ([5]; MRSA strain 7172): <0.38 | MIC of antibiotic only ([5]; MRSA strain 7172): 8 µg/mL | FIC antibiotic ([5]; MRSA strain 7172): 0.250 | MIC of antibiotic in combination ([5]; MRSA strain 7172): 2 µg/mL | FIC compound ([5]; MRSA strain 7698): 0.128 | Rescue concentration of SP-BIM 13 ([5]; MRSA strain 7698): 32 µg/mL | Interpretation ([5]; MRSA strain 7698): Synergy (Synergy: FICI≤0.5) | Σ FIC ([5]; MRSA strain 7698): <0.19 | MIC of antibiotic only ([5]; MRSA strain 7698): 16 µg/mL | FIC antibiotic ([5]; MRSA strain 7698): 0.063 | MIC of antibiotic in combination ([5]; MRSA strain 7698): 1 µg/mL | FIC compound ([5]; MRSA strain 10132): 0.032 | Rescue concentration of SP-BIM 13 ([5]; MRSA strain 10132): 8 µg/mL | Interpretation ([5]; MRSA strain 10132): Synergy (Synergy: FICI≤0.5) | Σ FIC ([5]; MRSA strain 10132): <0.09 | MIC of antibiotic only ([5]; MRSA strain 10132): 8 µg/mL | FIC antibiotic ([5]; MRSA strain 10132): 0.063 | MIC of antibiotic in combination ([5]; MRSA strain 10132): 0.5 µg/mL | MIC (Candida albicans; 24 h, read-out: MIC antibiotic only): 16 µg/mL | MIC in combination: Antibiotic (Candida albicans; [14]): 2 | FIC of SP-BIM 13 (Candida albicans; [9]): 0.5 | Interpretation (Candida albicans; antibiotic + SP-BIM 13): Additive (Additive: FICI>0.5-1.0) | Σ FIC (Candida albicans; antibiotic + SP-BIM 13): <0.6 | FIC of antibiotic (Candida albicans; combination with SP-BIM 13): 0.1 | MIC (Escherichia coli [6]; read-out: MIC antibiotic only, Escherichia coli, antibiotic alone): 16 µg/mL | MIC (Escherichia coli [6]; read-out: MIC antibiotic only, Escherichia coli, antibiotic alone, SP-BIM 9 checkerboard): 16 µg/mL | MIC in combination: Antibiotic (Escherichia coli [6]; [14]): 2 | FIC of SP-BIM 9 (Escherichia coli [6]; [8]): 0.5 | FIC of SP-BIM 13 (Escherichia coli [6]; [9]): 0.3 | Interpretation (Escherichia coli [6]; antibiotic + SP-BIM 9): Synergy (Synergy: FICI≤0.5) | Σ FIC (Escherichia coli [6]; antibiotic + SP-BIM 9): <1.0 | Interpretation (Escherichia coli [6]; antibiotic + SP-BIM 13): Synergy (Synergy: FICI≤0.5) | Σ FIC (Escherichia coli [6]; antibiotic + SP-BIM 13): <0.4 | MIC in combination, Antibiotic (Escherichia coli [6]; [10]): 8 µg/mL | FIC of antibiotic (Escherichia coli [6]; combination with SP-BIM 13): 0.1 | FIC of antibiotic (Escherichia coli [6]; in combination with SP-BIM 9): 0.5 | MIC (Klebsiella pneumoniae; SP-BIM 9 checkerboard): 16 µg/mL | MIC (Klebsiella pneumoniae; SP-BIM 13 checkerboard): 16 µg/mL | FIC of SP-BIM 9 (Klebsiella pneumoniae; [8]): 0.5 | FIC of SP-BIM 13 (Klebsiella pneumoniae; [9]): 0.3 | Interpretation (Klebsiella pneumoniae; antibiotic + SP-BIM 9): Additive (Additive: FICI>0.5-1.0) | Σ FIC (Klebsiella pneumoniae; antibiotic + SP-BIM 9): <0.8 | Interpretation (Klebsiella pneumoniae; antibiotic + SP-BIM 13): Synergy (Synergy: FICI≤0.5) | Σ FIC (Klebsiella pneumoniae; antibiotic + SP-BIM 13): <0.4 | MIC in combination, Antibiotic (Klebsiella pneumoniae; [10]): 4 µg/mL | MIC in combination, Antibiotic (Klebsiella pneumoniae; [11]): 2 µg/mL | FIC of antibiotic (Klebsiella pneumoniae; in combination with SP-BIM 9): 0.25 | FIC of antibiotic (Klebsiella pneumoniae; in combination with SP-BIM 13): 0.1 | MIC of antibiotic, No Compound (Enterobacter cloacae): 4 µg/mL | MIC (Staphylococcus aureus; SP-BIM 9 checkerboard): 8 µg/mL | MIC (Staphylococcus aureus; SP-BIM 13 checkerboard): 8 µg/mL | FIC of SP-BIM 9 (Staphylococcus aureus; [8]): 0.13 | FIC of SP-BIM 13 (Staphylococcus aureus; [9]): 0.3 | Interpretation (Staphylococcus aureus; antibiotic + SP-BIM 9): Synergy (Synergy: FICI≤0.5) | Σ FIC (Staphylococcus aureus; antibiotic + SP-BIM 9): <0.38 | Interpretation (Staphylococcus aureus; antibiotic + SP-BIM 13): Synergy (Synergy: FICI≤0.5) | Σ FIC (Staphylococcus aureus; antibiotic + SP-BIM 13): 0.4 | MIC in combination, Antibiotic (Staphylococcus aureus; [10]): 2.0 µg/mL | MIC in combination, Antibiotic (Staphylococcus aureus; [11]): 1 µg/mL | FIC of antibiotic (Staphylococcus aureus; in combination with SP-BIM 9): 0.25 | FIC of antibiotic (Staphylococcus aureus; in combination with SP-BIM 13): 0.1 | MIC of antibiotic, No Compound (Enterococcus faecalis): 0.5 µg/mL | MIC (Streptococcus pneumoniae [7]): 63 µg/mL
